Experiments:
[1] = tested on: influenza A virus (A/WSN/33); assay: ELISA virus capture on streptavidin coated plate; type: binding
[2] = target: Bovine serum albumin (BSA) (Bos taurus, UniProt P02769); assay: Western blot analysis, negative control protein; type: binding; conditions: BSA 0.65 μg/μl with 200 μM, 4° C.
[3] = tested on: Japanese encephalitis virus (JEV); assay: ELISA selective capturing experiment; type: binding; conditions: mixture of influenza A virus and JEV; anti-JEV antibody
influenza A virus = assay: ELISA capturing experiment with neuraminidase active site blocked by zanamivir; type: binding; conditions: compound 1 667 μM, zanamivir 67 μM pre-incubation 45 minutes, 9×10^3 PFU, optical density
[4] = target: T1, influenza A virus neuraminidase (Influenza A virus, UniProt P03470); assay: biochemical; type: biochemical, influenza A virus (A/WSN/33)
T1 construct: pre-incubated for 45 minutes with influenza A virus (A/WSN/33; 9×10^3 PFU); host or cells: whole virus particles (PFU-titred virus stock)

[5] = target: T2, Athrobacter ureafaciens neuraminidase (Paenarthrobacter ureafaciens, UniProt Q5W7Q2); type: biochemical; conditions: pH 6.5
T2 sequence (Q5W7Q2 39-990): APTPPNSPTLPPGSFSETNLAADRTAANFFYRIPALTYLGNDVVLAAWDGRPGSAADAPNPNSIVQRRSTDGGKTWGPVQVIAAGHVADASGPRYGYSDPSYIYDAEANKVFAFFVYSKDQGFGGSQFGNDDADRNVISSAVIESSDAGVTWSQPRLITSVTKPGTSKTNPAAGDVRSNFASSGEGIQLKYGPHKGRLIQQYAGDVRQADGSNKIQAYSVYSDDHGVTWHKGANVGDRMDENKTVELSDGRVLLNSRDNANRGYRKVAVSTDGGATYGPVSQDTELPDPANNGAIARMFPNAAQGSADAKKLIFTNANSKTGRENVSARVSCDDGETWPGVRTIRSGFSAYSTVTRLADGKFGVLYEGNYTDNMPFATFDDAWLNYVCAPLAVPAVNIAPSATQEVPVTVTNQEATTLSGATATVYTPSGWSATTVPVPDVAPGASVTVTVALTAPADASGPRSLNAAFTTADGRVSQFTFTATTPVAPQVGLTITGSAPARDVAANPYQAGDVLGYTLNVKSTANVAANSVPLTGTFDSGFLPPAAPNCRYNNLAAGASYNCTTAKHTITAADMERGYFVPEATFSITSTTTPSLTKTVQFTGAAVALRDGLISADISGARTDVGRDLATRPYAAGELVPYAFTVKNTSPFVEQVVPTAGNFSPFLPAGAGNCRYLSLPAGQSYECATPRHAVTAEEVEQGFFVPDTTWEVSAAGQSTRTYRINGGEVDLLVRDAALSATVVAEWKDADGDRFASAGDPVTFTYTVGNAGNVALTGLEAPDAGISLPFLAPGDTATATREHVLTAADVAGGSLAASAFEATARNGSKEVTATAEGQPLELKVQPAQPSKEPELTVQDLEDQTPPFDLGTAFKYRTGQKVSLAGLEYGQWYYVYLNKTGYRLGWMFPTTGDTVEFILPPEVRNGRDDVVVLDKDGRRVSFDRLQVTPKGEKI

[6] = target: Vibro cholerae neuraminidase (Vibrio cholerae serotype O1, UniProt P0C6E9); assay: biochemical; type: biochemical; conditions: for inhibitory effect on neuraminidase activity: pH 6.5
[7] = target: Clostridium perfringens neuraminidase (Clostridium perfringens, UniProt P10481); type: biochemical; conditions: pH 6.5
[8] = target: T2, Athrobacter ureafaciens neuraminidase; assay: Western blot analysis of covalent binding (biotinylation) of neuraminidase; conditions: 200 μM, 4° C., ammonium acetate buffer 100 mM; bands of 88, 66 and 52 KDa

Chain of Vibro cholerae neuraminidase (P0C6E9 25-781): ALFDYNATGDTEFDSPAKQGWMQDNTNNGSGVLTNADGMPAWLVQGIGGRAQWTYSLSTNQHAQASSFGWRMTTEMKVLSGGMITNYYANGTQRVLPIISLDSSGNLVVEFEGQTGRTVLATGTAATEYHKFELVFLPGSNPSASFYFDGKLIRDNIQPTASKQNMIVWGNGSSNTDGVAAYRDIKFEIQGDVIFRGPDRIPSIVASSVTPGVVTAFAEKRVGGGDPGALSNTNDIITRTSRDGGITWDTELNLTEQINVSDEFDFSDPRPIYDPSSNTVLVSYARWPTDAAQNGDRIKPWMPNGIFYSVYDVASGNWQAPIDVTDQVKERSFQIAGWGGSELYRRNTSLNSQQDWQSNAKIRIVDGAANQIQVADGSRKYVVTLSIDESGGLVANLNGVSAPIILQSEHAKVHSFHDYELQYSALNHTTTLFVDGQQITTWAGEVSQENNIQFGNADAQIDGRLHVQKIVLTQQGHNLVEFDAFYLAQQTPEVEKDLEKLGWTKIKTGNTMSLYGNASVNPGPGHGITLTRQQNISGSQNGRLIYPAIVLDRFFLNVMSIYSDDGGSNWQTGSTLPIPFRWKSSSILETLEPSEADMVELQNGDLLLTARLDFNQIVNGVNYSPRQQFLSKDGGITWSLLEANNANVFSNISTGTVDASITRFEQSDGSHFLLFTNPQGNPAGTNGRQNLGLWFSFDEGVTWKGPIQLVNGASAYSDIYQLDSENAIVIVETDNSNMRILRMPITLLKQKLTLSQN
T1 sequence (P03470 whole entry): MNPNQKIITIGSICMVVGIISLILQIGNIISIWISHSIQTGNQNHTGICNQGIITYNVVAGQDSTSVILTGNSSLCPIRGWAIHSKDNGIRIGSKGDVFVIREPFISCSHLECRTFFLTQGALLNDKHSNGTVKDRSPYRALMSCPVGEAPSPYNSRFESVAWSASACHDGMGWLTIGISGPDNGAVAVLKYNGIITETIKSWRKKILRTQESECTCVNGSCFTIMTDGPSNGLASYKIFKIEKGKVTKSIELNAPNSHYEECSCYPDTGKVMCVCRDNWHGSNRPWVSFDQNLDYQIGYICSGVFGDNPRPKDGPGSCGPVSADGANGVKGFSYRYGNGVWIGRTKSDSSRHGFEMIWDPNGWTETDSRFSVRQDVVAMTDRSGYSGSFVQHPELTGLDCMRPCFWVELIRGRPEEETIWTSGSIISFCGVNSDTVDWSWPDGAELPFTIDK
Chain of Clostridium perfringens neuraminidase (P10481 whole entry, looked up): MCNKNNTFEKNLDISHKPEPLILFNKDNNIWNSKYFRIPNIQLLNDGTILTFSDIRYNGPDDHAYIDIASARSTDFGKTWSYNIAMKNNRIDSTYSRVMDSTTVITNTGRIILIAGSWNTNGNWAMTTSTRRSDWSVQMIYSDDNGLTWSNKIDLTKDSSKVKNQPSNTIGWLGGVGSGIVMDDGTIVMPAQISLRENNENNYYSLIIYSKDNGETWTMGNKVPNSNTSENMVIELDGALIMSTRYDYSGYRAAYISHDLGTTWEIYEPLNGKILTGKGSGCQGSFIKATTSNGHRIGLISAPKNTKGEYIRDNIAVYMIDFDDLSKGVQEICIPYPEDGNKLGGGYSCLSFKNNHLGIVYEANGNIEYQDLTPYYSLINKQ
Chain of Bovine serum albumin (BSA) (P02769 25-607): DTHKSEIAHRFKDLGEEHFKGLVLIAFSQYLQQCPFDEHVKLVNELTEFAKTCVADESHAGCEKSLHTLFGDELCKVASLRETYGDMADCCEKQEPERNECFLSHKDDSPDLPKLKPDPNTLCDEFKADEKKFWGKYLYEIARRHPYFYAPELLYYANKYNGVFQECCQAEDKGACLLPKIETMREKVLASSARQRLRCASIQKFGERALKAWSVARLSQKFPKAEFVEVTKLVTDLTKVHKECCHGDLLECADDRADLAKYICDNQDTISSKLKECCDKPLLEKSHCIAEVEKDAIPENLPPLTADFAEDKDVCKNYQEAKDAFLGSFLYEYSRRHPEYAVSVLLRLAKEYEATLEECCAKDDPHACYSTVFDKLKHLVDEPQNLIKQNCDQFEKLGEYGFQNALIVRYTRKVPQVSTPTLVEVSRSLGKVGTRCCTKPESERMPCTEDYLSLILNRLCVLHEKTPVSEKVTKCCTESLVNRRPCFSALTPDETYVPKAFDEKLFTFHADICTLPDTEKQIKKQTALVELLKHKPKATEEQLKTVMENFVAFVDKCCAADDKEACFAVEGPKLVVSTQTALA

| Structure (SMILES) | capture of influenza A virus on plate wells ([1]; 5 nmol on streptavidin coated plate, virus 3.8×10^2-970×10^2 PFU, anti-Flu A antibody detection) | capture of influenza A virus from a mixture with JEV ([1]; mixture of influenza A virus and JEV, anti-Flu A antibody) | bands on the PVDF membrane [2] | capture of JEV from a mixture with influenza A virus [3] | capture of influenza A virus relative to influenza A virus pretreated with zanamivir (influenza A virus) | IC50 [4] | inhibitory effect on neuraminidase activity ([4]; pH 6.5) | inhibitory effect on neuraminidase activity [5] | IC50 [6] | inhibitory effect on neuraminidase activity [6] | inhibitory effect on neuraminidase activity [7] | bands on the PVDF membrane (biotinylated neuraminidase isoenzymes) [8] |
| --- | --- | --- | --- | --- | --- | --- | --- | --- | --- | --- | --- | --- |
| CC(=O)N[C@@H]1C(O)CC(Oc2ccc(NC(=O)CCC(=O)NCCCCCCNC(=O)CCCCC3SCC4NC(=O)NC43)cc2C(F)F)(C(=O)O)OC1[C@H](O)[C@H](O)CO (stereo partly drawn) [compound 1] | successfully captured influenza A virus | captured and detected | no band was observed | not JEV | 14 folds | 1700 µM | significant inhibitory effect | significant inhibitory effect | 530 µM | significant inhibitory effect | significant inhibitory effect | three bands |
| CC(=O)N[C@H]1[C@H]([C@H](O)[C@H](O)CO)OC(C(=O)O)=C[C@@H]1N=C(N)N [zanamivir, reference compound] |  |  |  |  |  |  |  | only weak inhibitory effect |  | only weak inhibitory effect | only weak inhibitory effect |  |
